Data published in patent US5639782A, “Neolignan derivatives as platelet activating factor receptor antagonists and 5-lipoxygenase inhibitors” (Center for Innovative Technology, priority 1994, dated 1997).
Entries after “also recorded” stand apart in the source; their conditions may differ. Read-outs that look alike come from different tables or passages of the source.

Tests used:
PAF receptor = details: literature report; cited from earlier work
[1] = test system: PAF induced platelet aggregation (human platelets); assay: PAF induced platelet aggregation assay; assay type: cell-based; details: for PAF antagonist activity (in words): in vitro
Procedure: In vitro experiments have been conducted to determine the PAF and 5-lipoxygenase inhibitory activity of a variety of synthesized, neolignan derivative compounds. In particular, the novel compounds are either 2,4-diaryl-1,3-dithiolanes or futoenone derivatives. PAF antagonist activity was determined according to the method of Shen et al., in Methods of Ezymology, Vol. 187, 447-449 (1990), and that article is herein incorporated by reference. The 5-lipoxygenase inhibitory activity was determined according to an assay discussed below.
The following outlines a platelet aggregation assay procedure. Blood is obtained from human volunteers who have not ingested aspirin or steroid drugs for ten days and is stored with a 3.8% trisodium citrate anticoagulant. Heparin is not used as the anticoagulant since it interferes with platelet aggregation. Citrated blood is centrifuged at 220 g for 10 min. at room temperature to obtain platelet-rich plasma (PRP). The platelet count is determined and is adjusted to […]. Platelet-poor plasma (PPP) is prepared by centrifuging PRP at 1000 g for 20 min. to pelletize the platelets. PPP is used to calibrate the aggregometer. Washed platelet suspension (WPS) is prepared from PRP by underlayering the latter with Ficoll-Paque (9:2, v/v) and centrifuging at 750 g for 15 min. at room temperature. The platelets form a band between the plasma and the separation medium and are carefully collected and suspended in Tyrode's solution (in mM: NaCl, 137; KCl, 2.7; NAHCO3, 11.9; NaH2 -PO4, 0.42; MgCl2, 1.0; CaCl2, 1.0; HEPES, 5.0; and dextrose, 1 g/liter, with 0.25% BSA, w/v, pH 7.4). Prostacyclin (PGI2) (1 ng/ml) can be added to the suspension to prevent platelet activation; however, it should be understood that the inhibitory activity of PGI2 disappears completely 10 min. from the time of addition at room temperature. The suspension is then spun at 1000 g for 10 min. and the pellet is resuspended in Tyrode's buffer for platelet aggregation. The suspensions are maintained at 37° C. and stirred constantly at 1000 revolutions per min (rpm). A known amount of PAF, such as 0.11 μM PAF, is added to the suspension three to five minutes after the addition of the potential PAF antagonists (the synthesized compounds). […] To obtain the IC50 value, varying concentrations of a potential antagonist need to be added to the test suspensions with the percentage inhibition being determined for each concentration of the antagonist, and the IC50 value is obtained from a plot of the percentage inhibition versus concentration of the antagonist.

[2] = PAF induced platelet aggregation

Row | SMILES | PAF receptor antagonism (in words) (PAF receptor) | PAF antagonist activity (in words) [1, 2] | other results
1 | COc1cc(C2CCC(c3cc(OC)c(OC)c(OC)c3)O2)cc(OC)c1OC [L-652,731] | potent PAF receptor antagonists |  | 
2 | CCCOc1c(OC)cc(C2CCC(c3cc(OC)c(OC)c(OC)c3)O2)cc1S(C)(=O)=O [L-659,989] | potent PAF receptor antagonists |  | 
3 | COc1cc(C2CSC(c3cc(OC)c(OC)c(OC)c3)S2)cc(OC)c1OC (stereo not drawn) [compound 1, Cis and trans-2,4-bis-(3,4,5-trimethoxyphenyl)-1,3-dithiolane] |  |  | IC50 ([1]; Homo sapiens, PAF induced platelet aggregation, read-out: IC50 value, PAF-induced platelet aggregation): < 1 µM
4 | COC1=C[C@]23C[C@H](C[C@H](c4ccc5c(c4)OCO5)[C@H]2C)OC3=CC1=O [futoenone] |  | posesses PAF antagonist activity; also recorded: potent PAF antagonist activity | IC50 ([1]; human platelet assay in PRP, 0.1 μM PAF, read-out: IC50 value for platelet aggregation induced by 0.1 μM PAF): ~13.6 µM
5 | C=CCC1=C[C@@]2(OC)C(=CC1=O)O[C@H](c1ccc(OC)c(OC)c1)[C@H]2C [kadsurenone] | potent, specific and competitive inhibitor of PAF at the receptor level |  | 
6 | COc1cc(C2CSC(c3cc(OC)c(OC)c(OC)c3)O2)cc(OC)c1OC (stereo not shown) [oxathiolane (F')] |  | much weaker antagonist of PAF-induced platelet aggregation than the corresponding dithiolane compound | 
